Assay results taken from patent US9650340B2, “5-fluoro-N-(pyridin-2-yl)pyridin-2-amine derivatives containing a sulfoximine group” (BAYER PHARMA AKTIENGESELLSCHAFT, priority 2012, dated 2017).
Read-outs that look alike come from different tables or passages of the source.

Legend:
[1] = test system: B16F10, mouse melanoma cells; test: Proliferation assay, B16F10 (crystal violet); assay type: cell-based; settings: B16F10, 4 days, read-out: Inhibition of B16F10 cell proliferation IC50
Method: (§1) Cultivated tumour cells (HeLa, human cervical tumour cells, ATCC CCL-2; NCI-H460, human non-small cell lung carcinoma cells, ATCC HTB-177; A2780, human ovarian carcinoma cells, ECACC #93112519; DU 145, hormone-independent human prostate carcinoma cells, ATCC HTB-81; HeLa-MaTu-ADR, multidrug-resistant human cervical carcinoma cells, EPO-GmbH Berlin; Caco-2, human colorectal carcinoma cells, ATCC HTB-37; B16F10, mouse melanoma cells, ATCC CRL-6475) were plated at a density of 5,000 cells/well (DU145, HeLa-MaTu-ADR), 3,000 cells/well (NCI-H460, HeLa), 2,500 cells/well (A2780), 1,500 cells/well (Caco-2), or 1,000 cells/well (B16F10) in a 96-well multititer plate in 200 μL of their respective growth medium supplemented 10% fetal calf serum. After 24 hours, the cells of one plate (zero-point plate) were stained with crystal violet (see below), while the medium of the other plates was replaced by fresh culture medium (200 μl), to which the test substances were added in various concentrations (0 μM, as well as in the range of 0.001-10 μM; the final concentration of the solvent dimethyl sulfoxide was 0.5%). The cells were incubated for 4 days in the presence of test substances. Cell proliferation was determined by staining the cells with crystal violet: the cells were fixed by adding 20 μl/measuring point of an 11% glutaric aldehyde solution for 15 minutes at room temperature. After three washing cycles of the fixed cells with water, the plates were dried at room temperature. The cells were stained by adding 100 μl/measuring point of a 0.1% crystal violet solution (pH 3.0). After three washing cycles of the stained cells with water, the plates were dried at room temperature. The dye was dissolved by adding 100 μl/measuring point of a 10% acetic acid solution. The extinction was determined by photometry at a wavelength of 595 nm. The change of cell number, in percent, was calculated by normalization of the measured values to the extinction values of the zero-point plate (=0%) and the extinction of the untreated (0 μm) cells (=100%). The IC50 values (inhibitory concentration at 50% of maximal effect) were determined by means of a 4 parameter fit. Non-adherent MOLM-13 human acute myeloid leukemia cells (DSMZ ACC 554) were seeded at a density of 5,000 cells/well in a 96-well multititer plate in 100 μL of growth medium supplemented 10% fetal calf serum. After 24 hours, cell viability of one plate (zero-point plate) was determined with the Cell Titre-Glo Luminescent Cell Viability Assay (Promega), while 50 μL of test compound containing medium was added to the wells of the other plates (final concentrations in the range of 0.001-10 μM and DMSO controls; the final concentration of the solvent dimethyl sulfoxide was 0.5%). Cell viability was assessed after 72-hour exposure with the Cell Titre-Glo Luminescent Cell Viability Assay (Promega).

[2] = test system: HeLa, human cervical tumour cells; test: Proliferation assay, HeLa (crystal violet); assay type: cell-based; settings: 4 days, read-out: Inhibition of HeLa cell proliferation IC50
Method: as §1

[3] = biological target: T1, CDK2/CycE (Homo sapiens, UniProt P24941); test: CDK2/CycE kinase assay (TR-FRET, 10 μM ATP); assay type: biochemical; settings: Method 2 (2a)
T1 construct: GST; purchased ProQinase GmbH (Freiburg, Germany); host or cells: insect cells (Sf9)
Excerpt: 2a. CDK2/CycE Kinase Assay:
CDK2/CycE-inhibitory activity of compounds of the present invention was quantified employing the CDK2/CycE TR-FRET assay as described in the following paragraphs:
Recombinant fusion proteins of GST and human CDK2 and of GST and human CycE, expressed in insect cells (Sf9) and purified by Glutathion-Sepharose affinity chromatography, were purchased from ProQinase GmbH (Freiburg, Germany). As substrate for the kinase reaction biotinylated peptide biotin-Ttds-[…] (C-terminus in amid form) was used which can be purchased e.g. form the company JERINI Peptide Technologies (Berlin, Germany).
For the assay 50 nl of a 100 fold concentrated solution of the test compound in DMSO was pipetted into a black low volume 384 well microtiter plate (Greiner Bio-One, Frickenhausen, Germany), 2 μl of a solution of CDK2/CycE in aqueous assay buffer [50 mM Tris/HCl pH 8.0, 10 mM MgCl2, 1.0 mM dithiothreitol, 0.1 mM sodium ortho-vanadate, 0.01% (v/v) Nonidet-P40 (Sigma)] were added and the mixture was incubated for 15 min at 22° C. to allow pre-binding of the test compounds to the enzyme before the start of the kinase reaction. Then the kinase reaction was started by the addition of 3 μl of a solution of adenosine-tri-phosphate (ATP, 16.7 μM=>final conc. in the 5 μl assay volume is 10 μM) and substrate (1.25 μM=>final conc. in the 5 μl assay volume is 0.75 μM) in assay buffer and the resulting mixture was incubated for a reaction time of 25 min at 22° C. The concentration of CDK2/CycE was adjusted depending of the activity of the enzyme lot and was chosen appropriate to have the assay in the linear range, typical concentrations were in the range of 130 ng/mL The reaction was stopped by the addition of 5 μl of a solution of TR-FRET detection reagents (0.2 μM streptavidine-XL665 [Cisbio Bioassays, Codolet, France] and 1 nM anti-RB(pSer807/pSer811)-antibody from BD Pharmingen [#558389] and 1.2 nM LANCE EU-W1024 labeled anti-mouse IgG antibody [Perkin-Elmer, product no. AD0077]) in an aqueous EDTA-solution (100 mM EDTA, 0.2% (w/v) bovine serum albumin in 100 mM HEPES/NaOH pH 7.0).
The resulting mixture was incubated 1 h at 22° C. to allow the formation of complex between the phosphorylated biotinylated peptide and the detection reagents. Subsequently the amount of phosphorylated substrate was evaluated by measurement of the resonance energy transfer from the Eu-chelate to the streptavidine-XL. Therefore, the fluorescence emissions at 620 nm and 665 nm after excitation at 350 nm was measured in a TR-FRET reader, e.g. a Rubystar (BMG Labtechnologies, Offenburg, Germany) or a Viewlux (Perkin-Elmer). The ratio of the emissions at 665 nm and at 622 nm was taken as the measure for the amount of phosphorylated substrate.

| IC50 ([1]; Mus musculus, B16-F10, 96 h) | IC50 ([2]; Homo sapiens, 96 h) | IC50 [3] | IC50 [1] | IC50 [2] | SMILES |
| --- | --- | --- | --- | --- | --- |
| 150 nM | 43 nM | 110 nM | – | – | CCOc1cc(F)ccc1-c1cc(Nc2cc(CS(C)(=N)=O)cc(F)n2)ncc1F (racemic) [Example 26, (rac)-4-(2-Ethoxy-4-fluorophenyl)-5-fluoro-N-{6-fluoro-4-[(S-methylsulfonimidoyl)methyl]pyridin-2-yl}pyridin-2-amine] |
| 150 nM | 100 nM | 1200 nM | – | – | CCOc1cc(F)ccc1-c1cc(Nc2cc(CS(C)(=O)=NC(=O)C(F)(F)F)cc(F)n2)ncc1F (racemic) [Example 27, (rac)-N-{[(2-{[4-(2-Ethoxy-4-fluoro-phenyl)-5-fluoropyridin-2-yl]amino}-6-fluoropyridin-4-yl)methyl]-(methyl)oxido-λ^6-sulfanylidene}-2,2,2-trifluoroacetamide] |
| 120 nM | 100 nM | 210 nM | – | – | CCS(=N)(=O)Cc1ccnc(Nc2cc(-c3ccc(F)cc3OC)c(F)cn2)c1 (racemic) [Example 30, (rac)-N-{4-[(S-Ethylsulfonimidoyl)-methyl]pyridin-2-yl}-5-fluoro-4-(4-fluoro-2-methoxyphenyl)pyridin-2-amine] |
| 43 nM | 32 nM | 250 nM | – | – | COc1cc(F)ccc1-c1cc(Nc2cc(CS(C)(=O)=NC(=O)C(F)(F)F)cc(C(F)(F)F)n2)ncc1F (single isomer, unassigned; (+)) [Example 24, (+)-2,2,2-Trifluoro-N-[{[2-{[5-fluoro-4-(4-fluoro-2-methoxyphenyl)pyridin-2-yl]amino}-6-(trifluoromethyl)-pyridin-4-yl]methyl}(methyl)oxido-λ^6-sulfanylidene]acetamide] |
| 150 nM | 99 nM | 120 nM | – | – | CCOc1cc(F)ccc1-c1cc(Nc2cc(CS(C)(=N)=O)cc(F)n2)ncc1F (single isomer, unassigned; (+)) [Example 28, (+)-4-(2-Ethoxy-4-fluorophenyl)-5-fluoro-N-{6-fluoro-4-[(S-methylsulfonimidoyl)methyl]pyridin-2-yl}pyridin-2-amine] |
| 98 nM | 31 nM | 120 nM | – | – | COc1cc(F)ccc1-c1cc(Nc2cc(CS(C)(=N)=O)cc(C)n2)ncc1F (single isomer, unassigned; (+)) [Example 32, (+)-5-Fluoro-4-(4-fluoro-2-methoxyphenyl)-N-{6-methyl-4-[(S-methylsulfonimidoyl)methyl]pyridin-2-yl}pyridin-2-amine] |
| – | – | 22 nM | 47 nM | 30 nM | COc1cc(F)ccc1-c1cc(Nc2cc(CS(C)(=N)=O)cc(C(F)(F)F)n2)ncc1F (single isomer, unassigned; (-)) [Example 23, (−)-5-Fluoro-4-(4-fluoro-2-methoxyphenyl)-N-{4-[(S-methylsulfonimidoyl)methyl]-6-(trifluoromethyl)pyridin-2-yl}pyridin-2-amine] |
| – | – | 110 nM | 50 nM | 35 nM | COc1cc(F)ccc1-c1cc(Nc2cc(CS(C)(=O)=NC(=O)C(F)(F)F)cc(C(F)(F)F)n2)ncc1F (single isomer, unassigned; (-)) [Example 25, (−)-2,2,2-Trifluoro-N-[{[2-{[5-fluoro-4-(4-fluoro-2-methoxyphenyl)pyridin-2-yl]amino}-6-(trifluoromethyl)-pyridin-4-yl]methyl}(methyl)oxido-λ^6-sulfanylidene]acetamide] |

Second part, the compound before the results:

| SMILES | IC50 ([1]; Mus musculus, B16-F10, 96 h) | IC50 ([2]; Homo sapiens, 96 h) | IC50 [3] | IC50 [1] | IC50 [2] |
| --- | --- | --- | --- | --- | --- |
| COc1cc(F)ccc1-c1cc(Nc2cc(CS(C)(=N)=O)cc(C(F)(F)F)n2)ncc1F (racemic) [Example 21, (rac)-5-Fluoro-4-(4-fluoro-2-methoxyphenyl)-N-{4-[(S-methylsulfonimidoyl)methyl]-6-(trifluoromethyl)pyridin-2-yl}pyridin-2-amine] | 38 nM | 29 nM | 11 nM | – | – |
| COc1cc(F)ccc1-c1cc(Nc2cc(CS(C)(=O)=NC#N)ccn2)ncc1F (single isomer, unassigned) [Example 10, {[(2-{[5-Fluoro-4-(4-fluoro-2-methoxyphenyl)pyridin-2-yl]amino}pyridin-4-yl)methyl](methyl)oxido-λ^6-sulfanylidene}cyanamide] | 63 nM | 31 nM | 72 nM | – | – |
| COc1cc(F)ccc1-c1cc(Nc2cc(CS(C)(=N)=O)ccn2)ncc1F (single isomer, unassigned; (+)) [Example 2, (+)-5-Fluoro-4-(4-fluoro-2-methoxyphenyl)-N-{4-[(S-methylsulfonimidoyl)methyl]pyridin-2-yl}pyridin-2-amine] | – | – | 360 nM | 240 nM | 110 nM |
| COc1cc(F)ccc1-c1cc(Nc2cc(CS(C)(=N)=O)cc(C(F)(F)F)n2)ncc1F (single isomer, unassigned; (+)) [Example 22, (+)-5-Fluoro-4-(4-fluoro-2-methoxyphenyl)-N-{4-[(S-methylsulfonimidoyl)methyl]-6-(trifluoromethyl)pyridin-2-yl}pyridin-2-amine] | 51 nM | 30 nM | 18 nM | – | – |
| COc1cc(F)ccc1-c1cc(Nc2cc(CS(C)(=N)=O)ccn2)ncc1F (single isomer, unassigned; (-)) [Example 3, (−)-5-Fluoro-4-(4-fluoro-2-methoxyphenyl)-N-{4-[(S-methylsulfonimidoyl)methyl]pyridin-2-yl}pyridin-2-amine] | – | – | 240 nM | 310 nM | 100 nM |
| COc1cc(F)ccc1-c1cc(Nc2cc(CS(C)(=N)=O)cc(F)n2)ncc1F (single isomer, unassigned; (-)) [Example 20, (−)-5-Fluoro-4-(4-fluoro-2-methoxyphenyl)-N-{6-fluoro-4-[(S-methylsulfonimidoyl)methyl]pyridin-2-yl}pyridin-2-amine] | – | 30 nM | 72 nM | 54 nM | – |
